Laboratory results from paper PMC3948622, “Docking, Synthesis and Antiproliferative Activity of N-Acylhydrazone Derivatives Designed as Combretastatin A4 Analogues” (PLoS ONE, 2014).
Where two headings read alike, the source gives them in different places.

Key:
tubulin = assay: Tubulin polymerization assay (CEREP); format: biochemical; conditions: single concentration C = 30 µM; vinblastine as positive control
Description: The tubulin polymerization assay was performed by CEREP® employing a single concentration of 5b (C = 30 µM), using vinblastine as positive control. In this assay, LASSBio-1586 (5b) inhibited 91% of the tubulin polymerization, validating the rational design employed in the molecular design of the derivatives 5a–r (data not shown; available in the supplementary information, Figure S1).
The tubulin polymerization assay was performed by CEREP®, as described by Bonne and co-workers.

tumor cell lines = assay: In vitro antiproliferative MTT assay, tumor cell lines (summary over the panel); format: cell-based; conditions: summary in text over the cell lines of Table 2; read-out: IC50 (antiproliferative potency over the tumor cell lines)
Description: (§1) The antiproliferative activity of compounds 5a–r was determined based on an MTT assay and using CA-4 as standard against the tumor cell lines: HL-60 (human leukemia), SF-295 (human glioblastoma), MDA-MB435 (melanoma), PC3M (prostate cancer), OVCAR-8 (ovaries adenocarcinoma), NCI-H258M (pulmonary bronchio-alveolar carcinoma) and HCT-8 (adenocarcinoma ileocecal) (Table 2). To determine the selectivity index of compounds 5a–r, their antiproliferative profile was also evaluated toward human lymphocytes (Table 2).
(§2) Compounds (0.009–5 µg/mL) were tested for cytotoxic activity against selected cancer cell lines: SF-295 (glioblastoma), HCT-8 (colon), MDAMB-435 (melanoma), HL60 (leukemia), PC3M (prostate cancer), OVCAR-8 (ovaries adenocarcinoma) and NCI-H258M (pulmonary bronchio-alveolar carcinoma). All cell lines were kindly obtained from the National Cancer Institute (Bethesda, MD, USA).Tumor cell proliferation was quantified through the ability of living cells to reduce the yellow dye 3-(4,5-dimethyl-2-thiazolyl)-2,5-diphenyl-2H-tetrazolium bromide (MTT, Sigma Aldrich)) to a purple formazan product and absorbance was measured at 595 nm (DTX-880, Beckman Coulter).

[1] = test system: SF-295 (human glioblastoma); assay: In vitro antiproliferative MTT assay, SF-295; format: cell-based
Description: as §1, §2

BALB/c nude mice = conditions: for Survival: 4 days
Description: During the HFA, tumor cells (i.e., SF-295 and HCT-116) were cultivated within biocompatible, semipermeable polyvinylidene fluoride hollow fibers (HFs) and subcutaneously (s.c.) implanted within the dorsal portion of BALB/c nude mice. LASSBio-1586 (5b) and 5-Fluorouracil (5-FU), which was the positive control, were administered intraperitoneally for 4 consecutive days. On day 5, the fibers were removed to quantify the antiproliferative activity of 5b and 5-FU.
A total of 26 female BALB/c nude (nu/nu) mice aging 6–8 weeks were obtained from the animal facilities of State University of São Paulo (USP), Faculty of Medicine, São Paulo (SP), Brazil. They were kept in well-ventilated and sterile cages (Alesco, São Paulo) under standard conditions of light (12 h with alternative day and night cycles) and temperature (22±1°C) and were housed with access to commercial sterile rodent stock diet (Nutrilabor, São Paulo, Brazil) and water ad libitum. As previously mentioned procedures are in accordance with guidelines for the welfare of animals in experimental neoplasia and with national and international standard on the care and use of experimental laboratory animals and were approved by the local Ethical Committee on Animal Research (Process No. 102/2007).
Mice were anaesthetized with ketamine (90 mg/kg) - xylazine (4.5 mg/kg) (Sigma Aldrich). Groups were divided into: a) Negative control (DMSO 5%, n = 6); b) Positive control (5-Flouoruracil, 5-FU, 25 mg/kg/day, n = 7) (Sigma Aldrich); c) LASSBio-1586 (5b; 25 mg/kg/day, n = 7); d) LASSBio-1586 (5b; 50 mg/kg/day, n = 6). A small incision in the neck was incised to permit subcutaneous (s.c.) implantation of the fibers in the dorsal part of the animal. Each animal received 2 fibers at s.c. site. All incisions were sealed with a surgical stapler. The test compounds were administered intraperitoneally during 4 consecutive days. On day 5, fibers were removed to quantify the antiproliferative capacity as described above.

PC3M (prostate cancer) = assay: In vitro antiproliferative MTT assay, PC3M; format: cell-based
Description: as §1, §2

HL-60 (human leukemia) = assay: In vitro antiproliferative MTT assay, HL-60; format: cell-based
Description: as §1, §2

MDA-MB435 (melanoma) [2] = assay: In vitro antiproliferative MTT assay, MDA-MB435; format: cell-based; conditions: Homo sapiens, MDA-MB-435; Table 2; MTT
SF-295 (glioblastoma) = assay: Hollow Fiber Assay (HFA), SF-295 fibers s.c. in mice; format: in vivo, BALB/c nude mice; conditions: 4 days; for Proliferation (OD595 nm) SF-295: mean ± S.E.M.
Description: Cell culture of SF-295 (glioblastoma) and HCT-116 (colon carcinoma) was performed in RPMI 1640 medium supplemented with 10% fetal bovine serum, 2 mM glutamine, at 37°C with 5% CO2.
Polyvinylidene fluoride (PVDF) HFs with a 1-mm internal diameter and a molecular weight cutoff point of 500 kDa were used (Spectrum Laboratories, Houston, TX). The fibers were cut into pieces 12–15 cm long, washed 2× with sterile distilled water and kept in sterile conditions.
Before use, under sterile conditions, the fibers were incubated in complete RPMI with 20% fetal bovine serum (FBS) overnight (packaging time). Cell viability was assessed by trypan blue exclusion assay. Then, a cell suspension of 7.0×10^6 cell/mL at 4°C was injected into the fiber, with the ends thereof immediately heat-sealed. The fibers were cut into 2 cm each, transferred to petri plates and incubated in complete RPMI medium for 24 h prior to implantation in mice. Each cell was injected into one fiber of a different color (HCT-116, yellow fibers; SF-295, blue fibers).
Each animal received 2 fibers at s.c. site. All incisions were sealed with a surgical stapler.
Tumor cell proliferation was quantified through the ability of living cells to reduce the yellow dye 3-(4,5-dimethyl-2-thiazolyl)-2,5-diphenyl-2H-tetrazolium bromide (MTT, Sigma Aldrich) to a purple formazan product. For this purpose, the fibers removed from animals were incubated with MTT 1 mg/mL in 6-well plates during 4 h at 37°C, 5% CO2 and 95% humidity. The MTT solution was aspirated; fibers were washed with saline solution containing protamine sulphate 2.5% and incubated in protamine solution overnight at 4°C. Fibers were transferred to 24 well plates, cut into 2 or 3 pieces and put to dry. The formazan was dissolved in […] of DMSO, aliquots (150 uL) were transferred to 96 well plates and absorbance was measured at 595 nm (DTX-880, Beckman Coulter).

MDA-MB435 (melanoma) [3] = assay: In vitro antiproliferative MTT assay, MDA-MB435; format: cell-based
Description: as §1, §2

[4] = IC50 for human lymphocytes/IC50 for cancer cell line
[5] = SI of 5b relative to SI of CA-4

COc1cc(C(=O)N/N=C/c2ccccc2)cc(OC)c1OC [Compound 5b, (E)-N′benzylidene-3,4,5-trimetoxybenzohydrazide]
inhibition of tubulin polymerization (tubulin): 91%
IC50 (tumor cell lines): 64 to 800 nM
IC50 ([1]; Homo sapiens, SF-295, Table 2, MTT, read-out: IC50 SF295): 260 nM
SI Lymphocyte/ SF-295 [1, 4]: 4.88±0.42
comparative selectivity index (CA-4 vs 5b) SF-295 [1, 5]: 13
Survival (BALB/c nude mice; 25 mg/kg/day intraperitoneally): 7/7
Survival (BALB/c nude mice; 50 mg/kg/day intraperitoneally): 6/6
deaths of mice during treatment (BALB/c nude mice; intraperitoneally for 4 consecutive days, HFA): no deaths occurred
IC50 (PC3M (prostate cancer); Homo sapiens, PC-3M, Table 2, MTT): 800 nM
SI Lymphocyte/ PC3M (PC3M (prostate cancer); [4]): 1.60±0.10
IC50 (HL-60 (human leukemia); Homo sapiens, HL-60, Table 2, MTT): 290 nM
SI Lymphocyte/ HL-60 (HL-60 (human leukemia); [4]): 4.11±0.39
IC50 (MDA-MB435 (melanoma) [2]): 64 nM
Inhibition (%) SF-295 (SF-295 (glioblastoma); 25 mg/kg/day intraperitoneally): 61.89%
Proliferation (OD595 nm) SF-295 (SF-295 (glioblastoma); 25 mg/kg/day intraperitoneally): 0.57±0.05 OD595 nm
Inhibition (%) SF-295 (SF-295 (glioblastoma); 50 mg/kg/day intraperitoneally): 72.68%
Proliferation (OD595 nm) SF-295 (SF-295 (glioblastoma); 50 mg/kg/day intraperitoneally): 0.41±0.06 OD595 nm
SI Lymphocyte/ MDA-MB345 (MDA-MB435 (melanoma) [3]; [4]): 20.07±0.93
comparative selectivity index (CA-4 vs 5b) MDA-MB435 (MDA-MB435 (melanoma) [3]; [5]): 42
